Laboratory results published in patent US20240239748A1, “NOVEL FORMS OF ENTINOSTAT” (Macfarlan Smith Limited, priority 2021, published 2024).
Values after ≈ are worked out from the molar mass of the structure shown. Like-named read-outs stand apart in the source and are kept apart here.

Columns and labels:
[1] = Description: XRPD diffractograms are collected on a Bruker D8 diffractometer using Cu Ka radiation (40 kV, 40 mA) and a 0-20 goniometer fitted with a Ge monochromator. The incident beam passes through a 2.0 mm divergence slit followed by a 0.2 mm anti-scatter slit and knife edge. The diffracted beam passes through an 8.0 mm receiving slit with 2.5° Soller slits followed by the Lynxeye Detector. The software used for data collection and analysis is Diffrac Plus XRD Commander and Diffrac Plus EVA respectively. Samples are run under ambient conditions as flat plate specimens using powder as received. The sample is prepared on a polished, zero-background (510) silicon wafer by gently pressing onto the flat surface or packed into a cut cavity. The sample is rotated in its own plane.
The details of the standard data collection method are: • Angular range: 2 to 42° 20 • Step size: 0.05° 20 • Collection time: 0.5 s/step (total collection time: 6.40 min)

[2] = remark: listed apart in the source
Description: Sorption isotherms are obtained using a Hiden IGASorp moisture sorption analyser, controlled by Isochema HISorp software. The sample temperature is maintained at 25° C. by a Grant LT ecocool 150 re-circulating water bath. The humidity is controlled by mixing streams of dry and wet nitrogen, with a total flow rate of 250 ml/min. The relative humidity is measured by a calibrated Vaisala RH probe (dynamic range of 0-95% RH), located near the sample. The weight change, (mass relaxation) of the sample as a function of % RH is constantly monitored by the microbalance (accuracy±0.001 mg). Typically, 20-30 mg of sample is placed in a tared mesh stainless steel basket under ambient conditions. The sample is loaded and unloaded at 40% RH and 25° C.(typical room conditions). A moisture sorption isotherm is performed as outlined below (2 scans, giving 1 complete cycle). The standard isotherm is performed at 25° C. at 10% RH intervals over a 0-90% RH range.

[3] = 4 hour solubility in buffered media (HPLC quantitation); type: physicochemical; conditions: thermodynamic from solid, 25° C.
Description: Sufficient sample is suspended in 1.0 ml media for a maximum anticipated concentration of about 10 mg/ml of the free form of the compound. The resulting suspensions are then shaken at 25° C./750 rpm for 4 hours. The pH of the sample solutions is checked after 1 hour to ensure that the desired pH is maintained throughout (+0.2). After equilibration, the appearance is noted, and the final pH of the saturated solution is measured. Samples are then filtered through a glass ‘C’ fibre filter (Particle retention size 1.2 μm), before dilution with buffer as appropriate. Quantitation is by HPLC with reference to a standard solution of approximately 0.15 mg/ml. Different volumes of the standard, diluted and undiluted sample solutions are injected.
The HPLC method for solubility measurements is as follows:
Analysis is performed on an Agilent HP1100/Infinity II 1260 series system equipped with a diode array detector and using OpenLAB software.

SMILES: Nc1ccccc1NC(=O)c1ccc(CNC(=O)OCc2cccnc2)cc1.O=C(O)C=CC(=O)O
- stability of crystalline form (no change in form by XRPD) ([1]; 40° C./75% RH): stable at 40° C./75% RH for at least two weeks

SMILES: Nc1ccccc1NC(=O)c1ccc(CNC(=O)OCc2cccnc2)cc1.O=C(O)CCC(=O)O [Form A of entinostat compound with succinic acid]
- time the form remains stable, as evidenced by XRPD ([1]; 25° C./97% RH): at least 28 days
- time the form remains stable, as evidenced by XRPD ([1]; 40° C./75% RH): at least 28 days
- reversible water uptake by GVS ([2]; 25° C., 0-90% RH): ~0.5 wt %
- post GVS XRPD, change of crystalline form ([2]; after GVS cycle): no change in crystalline form

SMILES: Nc1ccccc1NC(=O)c1ccc(CNC(=O)OCc2cccnc2)cc1.O=C(O)CCC(=O)O [Form B of entinostat compound with succinic acid]
- time the form remains stable, as evidenced by XRPD ([1]; 40° C./75% RH): at least 7 days

SMILES: Nc1ccccc1NC(=O)c1ccc(CNC(=O)OCc2cccnc2)cc1.O=C(O)CCC(=O)O [Form C of entinostat compound with succinic acid]
- time the form remains stable, as evidenced by XRPD ([1]; 40° C./75% RH): at least 7 days

SMILES: Nc1ccccc1NC(=O)c1ccc(CNC(=O)OCc2cccnc2)cc1 [U.S. Pat. No. 7,973,166 Polymorph A, N-(2-aminophenyl)-4-[N-(pyridine-3-yl)-methoxycarbonylamino-methyl]-benzamide]
- solubility at 4 h ([3]; aqueous buffer, pH 4.5 acetate buffer): 190 µg/mL (≈ 505 µM)
- solubility at 4 h ([3]; aqueous buffer, pH 6.8 phosphate buffer): 75 µg/mL (≈ 199 µM)
- solubility at 4 h ([3]; aqueous buffer, pH 7.5 phosphate buffer): 72 µg/mL (≈ 191 µM)
- solubility at 4 h ([3]; buffer pH 2.8, aqueous buffer, pH 2.8 buffer): 5900 µg/mL (≈ 15700 µM)
- solubility at 4 h ([3]; simulated gastric fluid, pH 1.2 hydrochloric acid buffer): > 7900 µg/mL
